From publication PMC3292407 (The Journal of Neuroscience, 2012)
Several values for one entry are separate records, joined by “and”; a condition that tells them apart may be missing. Equal entries are not always repeated. Where two headings read alike, the source gives them in different places.

What was measured:
[1] = Plasma EtOH concentrations; assay type: in vivo, rat
rats [2] = experiment: Elevated-plus maze; assay type: in vivo, rat
rats [3] = experiment: Pentylenetetrazol; assay type: in vivo, rat; details: PTZ 42 mg/kg
rats [4] = assay type: in vivo, rat; details: for EtOH consumption: 20% EtOH/water (E/water-group)
[5] = Plasma [EtOH] assay of two-bottle choice; assay type: in vivo, rat; details: E+D/water-group vs E/water-group, end of the 6th week
GABAARs [6] = assay type: cell-based, rat; details: for Itonic (pA) / mIPSC amplitude (pA) / mIPSC area (fC) / Decay time / Frequency (HZ) / Rise time: DGCs of naive rats; for Decay time / Frequency (HZ) / Rise time: mIPSCs
GABAARs [7] = assay type: cell-based, rat
GABAAR α4 subunit [8] = experiment: Western blot of total GABAAR α4 subunit in hippocampus 48 hr after withdrawal; assay type: in vivo, rat
GABAAR α4 subunit [9] = assay type: cell-based, rat
GABAARs [10] = assay type: in vivo, rat; details: for Decay time / Frequency (HZ) / Rise time: baseline mIPSCs; for Itonic (pA) / mIPSC amplitude (pA) / mIPSC area (fC): baseline
rats [11] = experiment: Loss of Righting Reflex
[12] = 48 hr after DHM 1 mg/kg i.p. alone (D/W)
[13] = 48 hr withdrawal after EtOH 3 g/kg + DHM 1 mg/kg i.p. (E+D/W)
[14] = DHM 3 μM in presence of EtOH 60 mM
[15] = DHM 1 μM, cultured hippocampal neurons DIV13-14
[16] = D/W: 48 hr after DHM 1 mg/kg gavage
[17] = E+D/W: 48 hr after EtOH 5 g/kg + DHM 1 mg/kg gavage
[18] = DHM 0.3, 0.5, 1, 10 mg/kg co-injected i.p. with EtOH 3 g/kg
[19] = bath EtOH 60 mM, DGCs, naive rats
[20] = E/W: 48 hr after EtOH 5 g/kg gavage
[21] = bath EtOH 60 mM, DGCs of V/W-group rats

## O=C1c2c(O)cc(O)cc2O[C@H](c2cc(O)c(O)c(O)c2)[C@H]1O [DHM, (2R,3R)-3,5,7-trihydroxy-2-(3,4,5-trihydroxyphenyl)-2,3-dihydrochromen-4-one]
[1]; DHM 10 mg/kg with EtOH 3 g/kg, significant at 30 min, not at 60 min
  Effect on plasma [EtOH]: slightly decreased [EtOH]
[1]; DHM 1, 10 mg/kg with EtOH 3 g/kg
  Rise time of plasma [EtOH]: the rise time of plasma [EtOH] was slowed at early time
Rats [2]; [12]
  Time in open and closed arms (EPM): did not affect the time rats spent in either arm
Rats [2]; 48 hr withdrawal after EtOH 3 g/kg + DHM 1 mg/kg i.p. (E+D/W), vs V/W-group
  Time in open and closed arms (EPM): spent similar times
Rats [3]; [12]
  PTZ-induced seizure duration: 0.6 ± 0.4 min
Rats [3]; [13]
  PTZ-induced seizure duration: 1.7 ± 0.8 min
Rats [4]; E+D/water-group, 3rd vs 7th week
  Preference to bottle containing E+D: did not change this preference
Rats [4]; EtOH+DHM 0.05 mg/ml/water (E+D/water-group), beginning of the 4th week
  EtOH intake: 2.6 ± 0.5 g/kg/day
Rats [4]; between the 4 groups (E/water, E+D/water, D/water, water/water)
  Total fluid consumption: no significant differences in total fluid consumption
Rats [4]; between the 4 groups at the end of the experiments
  Body weight: no significant difference in body weight
[5]
  Plasma [EtOH]: significantly lower
GABAARs [6]; DHM 0.1 μM
  Itonic (pA): 27.6 ± 1.4 pA
  mIPSC amplitude (pA): 30.9 ± 2.9 pA
  mIPSC area (fC): 637.1 ± 19.8 fC
  Decay time: 7.5 ± 0.5 ms
  Frequency (HZ): 14.0 ± 0.6 HZ
  Rise time: 2.0 ± 0.2 ms
GABAARs [6]; DHM 1 μM
  Itonic (pA): 44.0 ± 4.1 pA
  mIPSC amplitude (pA): 32.7 ± 2.6 pA
  mIPSC area (fC): 715.7 ± 26.2 fC
  Decay time: 8.6 ± 0.5 ms
  Frequency (HZ): 15.0 ± 0.6 HZ
  Rise time: 2.1 ± 0.2 ms
GABAARs [6]; [14]
  EtOH-potentiated Itonic: 21.0 ± 0.9 pA
  EtOH-potentiated mIPSCs (area): 0.70 ± 0.02 nC
GABAARs [6]; DHM 10 μM
  Itonic (pA): 53.8 ± 2.9 pA
  mIPSC amplitude (pA): 36.1 ± 2.4 pA
  mIPSC area (fC): 965.7 ± 30.9 fC
  Decay time: 9.6 ± 0.8 ms
  Frequency (HZ): 15.9 ± 1.0 HZ
  Rise time: 2.4 ± 0.3 ms
GABAARs [6]; DHM 30 μM
  Itonic (pA): 54.0 ± 3.4 pA
  mIPSC amplitude (pA): 35.8 ± 3.0 pA
  mIPSC area (fC): 956.7 ± 22.6 fC
  Decay time: 10.1 ± 0.8 ms
  Frequency (HZ): 16.1 ± 1.7 HZ
  Rise time: 2.4 ± 0.2 ms
GABAARs [6]; DHM 0.3 and 1.0 μM
  Effect on EtOH (60 mM) potentiation of Itonic and mIPSCs: concentration-dependently antagonized
GABAARs [7]; [15]
  Itonic potentiation: 194.9 ± 13.6 % of baseline
  mIPSC area potentiation: 181.8 ± 9.2 % of baseline
GABAARs [7]; DHM 0.3 and 1 μM co-applied with GABA, TTX present, DIV14
  Effect on GABA concentration-response curve of GABAAR-currents: produced a left shift of the GABA concentration-response curve
GABAAR α4 subunit [8]; hippocampus 48 hr after DHM 1 mg/kg i.p. alone (D/W)
  Effect on total α4 subunit level: had no effect on α4 subunit level
GABAAR α4 subunit [8]; hippocampus 48 hr after EtOH 3 g/kg + DHM 1 mg/kg i.p. (E+D/W)
  Total α4 protein level: 93.0 ± 21.0 % of control
GABAAR α4 subunit [9]; cultured neurons 24 hrs after EtOH 60 mM + DHM 0.1 μM (E+D)
  Effect on EtOH-induced increase in surface GABAAR α4: prevented this increase
GABAARs [10]; [16]
  Decay time: 7.9 ± 1.2 ms
  Frequency (HZ): 13.2 ± 1.3 HZ
  Rise time: 2.2 ± 0.3 ms
  Itonic (pA): 24.3 ± 2.9 pA
  mIPSC amplitude (pA): 28.5 ± 3.0 pA
  mIPSC area (fC): 621.5 ± 68.5 fC
GABAARs [10]; [17]
  Decay time: 7.1 ± 0.6 ms
  Frequency (HZ): 12.4 ± 0.5 HZ
  Rise time: 1.8 ± 0.3 ms
  Itonic (pA): 30.0 ± 2.8 pA
  mIPSC amplitude (pA): 26.2 ± 2.1 pA
  mIPSC area (fC): 666.8 ± 34.1 fC
GABAARs [10]; bath EtOH 60 mM, DGCs of E+D/W-group rats
  mIPSC modulation by acute EtOH: mIPSC modulation was unchanged
Rats [11]; 48 hr withdrawal after DHM 1 mg/kg i.p. alone (D/W)
  Acute EtOH-induced LORR (tolerance): 65.6 ± 8.4 min
Rats [11]; [13]
  Acute EtOH-induced LORR (tolerance): 61.0 ± 3.8 min
Rats [11]; DHM 1 mg/kg 30 min prior to EtOH injection (D1+E)
  LORR duration: 8.2 ± 4.1 min
Rats [11]; DHM 1 mg/kg co-injected i.p. with EtOH 4 g/kg (E4+D1)
  LORR duration: 28.2 ± 4.0 min
Rats [11]; DHM 1 mg/kg i.p. alone (D1)
  LORR induction: did not induce LORR
Rats [11]; DHM 3 mg/kg co-injected with EtOH 3 g/kg (E3+D3)
  LORR duration: 2.7 ± 1.7 min
Rats [11]; DHM 100 mg/kg i.p. alone (D100)
  LORR duration: 2.9 ± 1.3 min
Rats [11]; [18]
  Effect on duration of EtOH-induced LORR: dose-dependently reduced LORR
  Effect on onset of EtOH-induced LORR: dose-dependently increased LORR onset
Rats [11]; DHM 300 mg/kg i.p. alone (D300)
  LORR duration: 9.8 ± 4.3 min
Rats [11]; DHM injected 30 min after EtOH
  Remaining LORR after the 30 min time point: 19 ± 1.0 min

## CCO [EtOH]
[1]; 30 min after EtOH 3 g/kg i.p. (E3)
  Plasma [EtOH]: 334.9 ± 37.8 mg/dL
[1]; 60 min after EtOH 3 g/kg i.p. (E3)
  Plasma [EtOH]: 353.7 ± 35.4 mg/dL
[1]; EtOH 4 g/kg i.p. (E4)
  Plasma [EtOH] at sampling time points (min) 5: 365.5 ± 7.7
  Plasma [EtOH] at sampling time points (min) 30: 379.5 ± 5.9
  Plasma [EtOH] at sampling time points (min) 60: 372.8 ± 5.4
  Plasma [EtOH] at sampling time points (min) 90: 361.6 ± 8.2
  Plasma [EtOH] at sampling time points (min) 180: 324.6 ± 21.4
[1]; EtOH 4 g/kg i.p. (E4), 0 = 0 to 3 min
  Plasma [EtOH] at sampling time points (min) 0: 143.3 ± 23.4
Rats [2]; 48 hr withdrawal after EtOH 3 g/kg i.p. (E/W), vs V/W-group
  Time in open and closed arms (EPM): significantly shorter time in open arms and longer time in closed arms
Rats [3]; 48 hr withdrawal after EtOH 3 g/kg i.p. (E/W)
  PTZ-induced seizure duration: 6.5 ± 1.1 min
Rats [4]; beginning of the 4th week
  EtOH consumption: 7.4 ± 0.6 g/kg/day
Rats [4]; end of the 2nd week
  EtOH consumption: 3.9 ± 1.4 g/kg/day
GABAARs [6]; [19]
  Itonic: 46.9 ± 1.4 pA and 44.8 ± 2.3 pA
  mIPSCs (area): 0.64 ± 0.02 nC and 0.78 ± 0.01 nC
GABAAR α4 subunit [8]; hippocampus 48 hr after EtOH 3 g/kg i.p. (E/W), compared to V/W-group
  Total α4 protein level: 184.0 ± 26.0%
GABAAR α4 subunit [9]; cultured neurons 24 hrs after EtOH 60 mM, 30 min
  Increase in surface expression of GABAAR α4 protein: 1.5 fold
GABAARs [10]; DGCs of E/W-group rats (EtOH 5 g/kg gavage, 48 hr withdrawal)
  mIPSC area before acute EtOH: 0.70 ± 0.03 nC
GABAARs [10]; [20]
  Decay time: 4.0 ± 0.4 ms
  Frequency (HZ): 11.4 ± 0.8 HZ
  Rise time: 0.8 ± 0.3 ms
  Itonic (pA): 13.0 ± 1.0 pA
  mIPSC amplitude (pA): 38.3 ± 3.3 pA
  mIPSC area (fC): 698.0 ± 33.7 fC
GABAARs [10]; bath EtOH 60 mM, DGCs of E/W-group rats (EtOH 5 g/kg gavage, 48 hr withdrawal)
  mIPSC area with acute EtOH: 1.4 ± 0.04 nC
GABAARs [10]; [21]
  Itonic with acute EtOH: 62.1 ± 3.3 pA
  mIPSC area with acute EtOH: 0.78 ± 0.05 nC
Rats [11]; 48 hr withdrawal after single EtOH 3 g/kg i.p. (E/W)
  Acute EtOH-induced LORR (tolerance): 10.8 ± 3.8 min
Rats [11]; EtOH 3 g/kg i.p. alone (E3)
  LORR duration: 73.6 ± 8.0 min and 69.0 ± 11.3 min
  LORR onset: 1.8 ± 0.2 min
Rats [11]; EtOH 4 g/kg i.p. alone (E4)
  LORR duration: 112.8 ± 8.0 min
Rats [11]; EtOH, saline injected 30 min after EtOH
  Additional LORR after the 30 min time point: 42 ± 9.1 min

## CCOC(=O)c1ncn2c1CN(C)C(=O)c1cc(F)ccc1-2 [flumazenil, reference compound]
GABAARs [7]; flumazenil (10 and 100 μM shown), cultured neurons
  Effect on DHM (1 μM) enhancement of Itonic and mIPSCs: inhibited the DHM enhancement on GABAAR-currents in a concentration-dependent manner
Rats [11]; flumazenil 10 mg/kg co-injected with EtOH 3 g/kg (E3+F10), vs E3-group
  Effect on EtOH-induced LORR: did not alter LORR
Rats [11]; flumazenil 10 mg/kg with EtOH 3 g/kg and DHM 3 mg/kg (E3+D3+F10)
  LORR duration: 56.1 ± 4.6 min
Rats [11]; flumazenil 10 mg/kg with EtOH 3 g/kg and DHM 10 mg/kg (E3+D10+F10)
  LORR duration: 29.3 ± 4.8 min
Rats [11]; flumazenil 20 mg/kg i.p. alone (F20)
  LORR duration: 0 min
Rats [11]; flumazenil 30 mg/kg with EtOH 3 g/kg and DHM 3 mg/kg (E3+D3+F30)
  LORR duration: 58.2 ± 3.9 min
Rats [11]; flumazenil 200 mg/kg i.p. alone (F200)
  LORR duration: 0 min
Rats [11]; flumazenil 20, 200 mg/kg alone
  LORR induction: did not induce LORR

## O=c1c(O)c(-c2ccc(O)c(O)c2)oc2cc(O)cc(O)c12 [quercetin, reference compound]
GABAARs [6]
  Effect on EtOH-induced potentiation of Itonic and mIPSCs: did not change EtOH-induced potentiation
